# Measurements as given in patent US7101707B2, “Secondary sprouting for isolation and expansion of endothelial sprout cells and endothelial precursor cells from a mixed population and for screening substances” (Cedars-Sinai Medical Center, priority 2002, dated 2006).
# Entries after “also recorded” stand apart in the source; their conditions may differ.
# Assays:
# [1] = tested on: retinal neovascularization; test: Oxygen-induced retinopathy in newborn mice; format: in vivo, mouse
# bovine REC [2] = test: Migration (wound healing) assay; format: cell-based
# Experimental: Migration assay. REC migration rates were examined in a wound healing assay, where cells migrate over time into the scrape wound in a monolayer. Briefly, cells were seeded in 24-well plates and allowed to reach confluence in growth medium. Prior to growth factor treatment, cells were serum-starved overnight in incomplete BREC medium with 0.5% FCS. All monolayers within an experiment were wounded with a single sterile wood stick of constant diameter, to ensure uniformity in the wound areas among different treatments. Wounded monolayers were then rinsed with low-serum medium to remove detached cells and treated with various combinations of human growth factors at 10 ng/mL each. On day 7, cells were rinsed 3× with PBS and fixed with methanol for 15 min, rehydrated with dH2O and stained with Meyer's hematoxylin for 5 min, followed by destaining with dH2O. All wells were photographed with a 4× or 10× objective using a Kodak MDS 100 digital camera attached to a Leitz DM IL inverted microscope. The original wound area was measured at 0 hr and used as a baseline for comparison to the treated wells at the conclusion of the experiment. The number of cells migrated into the wound was determined. Migrating cell counting was automated using the AAB (Advanced American Biotechnology, Fullerton, Calif.) software. Data were calculated and statistically analyzed (Spirin K S et al., Basement membrane and growth factor gene expression in normal and diabetic human retinas, Curr. Eye Res. 18:490–499 [1999]) relative to control cultures that received the same concentrations of bovine serum albumin instead of growth factors and/or inhibitor, compared to vehicle instead of inhibitor after wounding. Inhibitors were added 30 min before growth factors.
# [3] = Solubility of emodin in injection vehicle; format: physicochemical; details: phosphate-buffered saline with 20% PEG 400 + 2% Tween-80, pH 7.2
# Experimental: A minimum of 5 mouse pups were used per group. Emodin at 20–30 μg/g of body mass (or 10 μl/g) was prepared as a solution (70% ethanol) or suspension (PEG-Tween) in vehicle. Vehicle (“emodin solvent”) was 70% ethanol in initial experiments. In three later experiments, phosphate-buffered saline with 20% polyethylene glycol 400 (PEG 400)+2% Tween-80, pH 7.2, was used as vehicle.
# REC = test: Capillary-like tube formation on MATRIGEL; format: cell-based, bovine
# Experimental: (§1) In vitro MATRIGEL™ biological cell culture substrate assay of capillary-like tube formation and secondary sprouting. […] Briefly, 50 μL of reconstituted basement membrane matrix from mouse EHS tumor (BD or GFR MATRIGEL™ biological cell culture substrate; Becton Dickinson Labware, Bedford, Mass.) were dispensed with frozen pipettes into each well of a previously frozen, sterile 96-well plate sitting on wet ice and allowed to solidify for 1 hr at room temperature or 37° C. Approximately 5×10^4 or 7.5×10^4 REC in a 100 μL volume were seeded into each triplicate well. Human recombinant or purified growth factors were added to a final concentration of 10 ng/mL (or as noted) in 0.5% FCS incomplete BREC medium. Capillary-like tube structures formed by REC on reconstituted basement membrane matrix were photographed at various intervals ranging from 12–72 hr; pictures were scanned, digitized and analyzed using image-processing software.
# bovine REC [4] = test: Secondary sprouting assay on reconstituted basement membrane matrix (MTS); format: cell-based
# Experimental: as §1
# For the secondary sprouting assay, cells on reconstituted basement membrane matrix were seeded as above but incubated in 0.5% FCS incomplete BREC medium without any growth factors for 3 days, allowing for tube formation and collapse. On day 3, human recombinant or purified growth factors were added to a final concentration of 10 ng/mL (or as noted) in low-serum incomplete BREC medium and incubated for another 5–6 days. Digital photographs were obtained with a Kodak MDS 100 camera attached to a Leitz DM IL inverted microscope. Digitized images obtained with a Kodak MDS 100 video camera were stored on compact discs and quantified with NIH Image 1.62 software. The number of living cells in the sprouting colonies were determined using the MTS cell proliferation assay.
# A good correlation was observed between the spherical volume and the number of live cells in secondary sprouting colonies (not shown). Since the latter is an easy parameter to test by using the MTS assay, it was adopted as a faster method for studying the effect of various agents on secondary sprouting.
# bovine REC [5] = test: REC proliferation assay (MTS); format: cell-based
# Experimental: REC proliferation and survival assays. 96-well plates were coated with various amounts of TN-C or vehicle. 5×10^3 cells were added to each triplicate well in low-serum REC medium with various amounts of growth factors (0.5% FCS incomplete BREC medium containing 10 ng/ml of human IGF-I, FGF-2, VEGF, PlGF and PDGF-BB [R&D Systems Inc., Minneapolis, Minn.]). Cell numbers were determined on days 4–7 using the MTS cell proliferation assay (Promega Corp.) according to manufacturer's instructions. Survival was measured in the same way using high glucose (30 mM) or chemical hypoxia (2 mM sodium azide) or serum-free medium to induce cell death. Cell numbers were determined on days 4–7 using MTS assay (Promega).
# [6] = tested on: secondary sprouting colonies; test: Marker expression in secondary sprouting colonies (RT-PCR, immunofluorescence); format: cell-based; details: treatment of secondary sprouting colonies
# Experimental: Detection of markers expressed by cells selected from secondary sprouting colonies was carried out using reverse-transcriptase polymerase chain reaction (RT-PCR) with RNA derived from secondary sprouting cells, which was compared to RNA derived from non-sprouting cells. The RT-PCR method allows the detection of low-levels of message coding for the above-mentioned markers. Following manufacturer's instructions, RNA isolation was done with a QiaShredder kit (Qiagen) on isolated sprouts (scooped out of MATRIGEL™ biological cell culture substrate) followed by use of the RNAeasy kit (Qiagen), and the RT-reaction was conducted using a SMART cDNA kit (Clontech) and the RT-PCR protocol, as described in Hamdi et al., Biochem Biophys Res Commun. 295(3):668–72 [Jul. 19, 2002] but using approx. 50 ng of cDNA instead of genomic DNA per PCR reaction. The following primers were used: […]
# telomerase = test: Telomerase assay (TRAP) in cultured endothelial cells; format: cell-based
# From the text: Cells in secondary sprouting colonies contained high telomerase activity (FIG. 10, 3rd column) when compared to the parental cells (1st column), as measured by telomerase assay (TRAP; Yang, J., et al., Stem and germline cells are among the only cells in postnatal tissues that continue to express telomerase activity, J. Biol. Chem. 274(37):26141–26148 [1999]; Hsiao, R. et al., Mature endothelial cells express very low levels of telomerase and it's lost during the first five divisions in vitro, Anticancer Res 17:827–832 [1997]; Kolquist, K A et al., Nature Genet 19:182–186 [1998] as reviewed by Chang E et al. J. Invest. Dermatol. 118:752–8. [2002]). This enzyme activity is either very low or absent in aging or differentiated cells, but it is high in precursors. (Armstrong et al., mTert expression correlates with telomerase activity during the differentiation of murine embryonic stem cells. Mech Dev. 2000. 97(1–2):109–116). Telomerase activity is also high in invasive and highly proliferative cancers but not in normal adult cells. (Blasco et al., Telomeres and telomerase. Genes & Development. 1999. 13:2353–2359).
# [7] = basal and growth factor-stimulated (CK2 blockers), H-7 preliminary, not shown
molecule,measurement,setting,value
"Cc1cc(O)c2c(c1)C(=O)c1cc(O)cc(O)c1C2=O [emodin, 3-methyl-1,6,8-trihydroxyanthraquinone]",neovascular tufts in fluorescein angiograms vs vehicle control,[1]; intraperitoneal,much less pronounced
same,retinal vascularization in fluorescein angiograms vs vehicle control,[1]; intraperitoneal,significantly less vascularization
same,diminution of retinal neovascularization (preretinal nuclei count),"[1]; two intraperitoneal injections daily, day 11 to 17 after birth, emodin 20–30 μg/g, vs untreated or vehicle",70–75%
same,effect of kinase inhibitors on migration,bovine REC [2]; [7],potently inhibited
same,effect on growth factor-mediated cell migration,"bovine REC [2]; four GFs 10 ng/ml each, 7 days, 0.5% serum, emodin 10 μM, DRB 15 μM",significant inhibitory effect
same,solubility in vehicle,[3],did not ensure emodin solubility
same,effect of kinase inhibitors on tube formation,REC; [7],potently inhibited
same,effect of kinase inhibitors on secondary sprouting,bovine REC [4]; [7],potently inhibited
same,effect of kinase inhibitors on proliferation,bovine REC [5]; [7],potently inhibited
"PDGF-BB: platelet derived growth factor (PDGF)-BB, human recombinant or purified angiogenic growth factor","expression of AC133, CD166, AML-1, uPA, tPA",[6],increased the expression
same,effect of growth factors on REC migration,bovine REC [2]; growth factors 10 ng/mL each,potent stimulator
same,effect of growth factors on tube formation,REC; growth factors 10 ng/mL each,pro-collapsing factor
same,morphology of sprouting colonies after growth factor treatment,bovine REC [4]; 10 ng/mL,shorter and thicker sprouts
same,effect of growth factors on secondary sprouting (live cell number),"bovine REC [4]; 10 ng/mL, 0.5% FCS medium",potently stimulated; also recorded: most potent single growth factor; also recorded: potent stimulator; also recorded: dramatic increase; also recorded: greatly enhanced; also recorded: the most potent
same,additivity of effect on secondary sprouting with individual growth factors,"bovine REC [4]; PDGF-BB 1 ng/mL ± VEGF, IGF-I, PlGF or FGF-2 10 ng/mL, added day 3",not additive or synergistic; also recorded: not additive
same,effect on secondary sprouting when added after tube collapse,bovine REC [4]; growth factor added after the tubes had collapsed (day 3),again increased secondary sprouting
same,"stimulation of secondary sprouting (fold, on average)","bovine REC [4]; growth factors, live cells by MTS",three-fold
same,additivity of effect on secondary sprouting with combinations of three growth factors,"bovine REC [4]; three growth factors 10 ng/mL each plus fourth factor 0–100 ng/mL, added day 3",potentiated their responses; also recorded: additive
same,effect of growth factors on REC proliferation,bovine REC [5]; growth factors 10 ng/mL each,potent stimulator
same,telomerase activity of differentiated endothelial cells,"telomerase; differentiative culture conditions (plastic, no MATRIGEL)",opposite effect
same,telomerase activity of sprouting colonies,"telomerase; expansive culture conditions (MATRIGEL, low serum medium)",increases the activity of telomerase
